Source: ChEMBL document CHEMBL1201862, “PubChem BioAssay data set” (2004)
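Interpolation was linear, between the two tested concentrations surrounding the appropriate level; five concentrations were tested over 48 hours in 96-well plates. GI50: concentration for 50% inhibition of growth.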 Calls of active or inactive are those of the source. No stated cut-off is given here; in the data, active = GI50 up to about 1.1 µM and inactive = higher.

What was measured:
Assay in all cases: inhibition of tumour cell growth, NCI panel, 48 h
786-0 = test system: 786-0
ACHN = test system: ACHN
CAKI-1 = test system: CAKI-1
HCC 2998 = test system: HCC 2998
HOP-62 = test system: HOP-62
HT-29 = test system: HT-29
M14 = test system: M14
MDA-MB-435 = test system: MDA-MB-435
MDA-N = test system: MDA-N
MOLT-4 = test system: MOLT-4
NCI-H522 = test system: NCI-H522
NCI/ADR-RES = test system: NCI/ADR-RES
OVCAR-5 = test system: OVCAR-5
SNB-19 = test system: SNB-19
SR = test system: SR
SW-620 = test system: SW-620
TK-10 = test system: TK-10
U-251 = test system: U-251
UACC-257 = test system: UACC-257
UACC-62 = test system: UACC-62

| SMILES | GI50 (786-0) | GI50 (ACHN) | GI50 (CAKI-1) | GI50 (HCC 2998) | GI50 (HOP-62) | GI50 (HT-29) | GI50 (M14) | GI50 (MDA-MB-435) | GI50 (MDA-N) | GI50 (MOLT-4) | GI50 (NCI-H522) | GI50 (NCI/ADR-RES) | GI50 (OVCAR-5) | GI50 (SNB-19) | GI50 (SR) | GI50 (SW-620) | GI50 (TK-10) | GI50 (U-251) | GI50 (UACC-257) | GI50 (UACC-62) |
| --- | --- | --- | --- | --- | --- | --- | --- | --- | --- | --- | --- | --- | --- | --- | --- | --- | --- | --- | --- | --- |
| O=C(CCc1cc(O)cc(O)c1)NCCCNC(=O)CCc1cc(O)cc(O)c1 | > 100 µM (inactive) | > 100 µM (inactive) | > 100 µM (inactive) | > 100 µM (inactive) | > 100 µM (inactive) | > 100 µM (inactive) | > 100 µM (inactive) | > 100 µM (inactive) | > 100 µM (inactive) | > 100 µM (inactive) | > 100 µM (inactive) | > 100 µM (inactive) | > 100 µM (inactive) | > 100 µM (inactive) | > 100 µM (inactive) | > 100 µM (inactive) | > 100 µM (inactive) | > 100 µM (inactive) | > 100 µM (inactive) | > 100 µM (inactive) |
| CC1(C)CN=C(Nc2ccc(F)c(F)c2)S1 | > 100 µM (inactive) | > 100 µM (inactive) | > 100 µM (inactive) | > 100 µM (inactive) | > 100 µM (inactive) | > 100 µM (inactive) | > 100 µM (inactive) | > 100 µM (inactive) | > 100 µM (inactive) | > 100 µM (inactive) | > 100 µM (inactive) | > 100 µM (inactive) | > 100 µM (inactive) | > 100 µM (inactive) | > 100 µM (inactive) | > 100 µM (inactive) | > 100 µM (inactive) | > 100 µM (inactive) | > 100 µM (inactive) | > 100 µM (inactive) |
| C[C@]12CC[C@@H]3c4ccc(O)cc4CC[C@H]3[C@@H]1C/C(=C\c1ccc(C#N)cc1)C2=O | 35.7 µM (inactive) | 64 µM (inactive) | 82.8 µM (inactive) | 37.3 µM (inactive) | 40.4 µM (inactive) | 24.9 µM (inactive) | 41.8 µM (inactive) | 19.4 µM (inactive) | 25 µM (inactive) | 23.5 µM (inactive) | 17.4 µM (inactive) | 59.3 µM (inactive) | 71.8 µM (inactive) | 52.4 µM (inactive) | 50 µM (inactive) | 24.5 µM (inactive) | 34.1 µM (inactive) | 24.7 µM (inactive) | 30.8 µM (inactive) | 61.1 µM (inactive) |
| O=C1C=CC(=O)c2c1c1c(c3c2C2c4ccccc4C3c3ccccc32)C2c3ccccc3C1c1ccccc12 | 1.45 µM (inactive) | 1.73 µM (inactive) | 1.73 µM (inactive) | 6.92 µM (inactive) | 19.5 µM (inactive) | 2.11 µM (inactive) | 1.7 µM (inactive) | 1.75 µM (inactive) | 1.55 µM (inactive) | 0.836 µM (active) | 0.515 µM (active) | 5.04 µM (inactive) | 6.55 µM (inactive) | 16.2 µM (inactive) | 1.95 µM (inactive) | 0.914 µM (active) | 1.87 µM (inactive) | 8.71 µM (inactive) | 1.85 µM (inactive) | 2.07 µM (inactive) |
| Oc1ccc(SCc2cc(O)c(O)c(O)c2)cc1 | 37 µM (inactive) | 47.9 µM (inactive) | 39.6 µM (inactive) | > 10 µM (inactive) | 29 µM (inactive) | 23.5 µM (inactive) | 17.9 µM (inactive) | 22.4 µM (inactive) | > 10 µM (inactive) | 27 µM (inactive) | 22 µM (inactive) | 19.7 µM (inactive) | 22.4 µM (inactive) | 59.4 µM (inactive) | 25.5 µM (inactive) | 36.5 µM (inactive) | > 100 µM (inactive) | 37.1 µM (inactive) | > 100 µM (inactive) | 16.9 µM (inactive) |
| CC(=O)SCCC(NC(=S)Nc1ccccc1)P(=O)(Oc1ccccc1)Oc1ccccc1 (stereo not given) | > 100 µM (inactive) | > 100 µM (inactive) | > 100 µM (inactive) | > 100 µM (inactive) | > 100 µM (inactive) | > 100 µM (inactive) | > 100 µM (inactive) | > 100 µM (inactive) | > 100 µM (inactive) | > 100 µM (inactive) | > 100 µM (inactive) | > 100 µM (inactive) | > 100 µM (inactive) | > 100 µM (inactive) | > 100 µM (inactive) | > 100 µM (inactive) | 60.8 µM (inactive) | > 100 µM (inactive) | > 100 µM (inactive) | > 100 µM (inactive) |
| COC(=O)c1ccc(NCc2cc(O)ccc2O)cc1 | 9.4 µM (inactive) | 10.2 µM (inactive) | 21.3 µM (inactive) | 14.4 µM (inactive) | 15.9 µM (inactive) | 23.1 µM (inactive) | 18 µM (inactive) | 4.63 µM (inactive) | 5.31 µM (inactive) | 3.19 µM (inactive) | 0.841 µM (active) | 3.08 µM (inactive) | 15 µM (inactive) | 22.7 µM (inactive) | 1.58 µM (inactive) | 9.18 µM (inactive) | 17.5 µM (inactive) | 9.79 µM (inactive) | 14.4 µM (inactive) | 10.4 µM (inactive) |
